From the NIST ThermoML archive (doi:10.1016/j.jct.2018.12.021)

Experiment: mn = molality of the nth substance listed, in mol/kg
Conditions: 100 kPa, Liquid; for electrical conductivity: Direct current cell with electrodes; for mass density: Vibrating tube method

CCCCCCCCCCCC[n+]1ccsc1.[Br-] [N-dodecylthiazolium bromide] + O
Conditions | electrical conductivity, 303.15 K [S/m] | electrical conductivity, 308.15 K [S/m] | electrical conductivity, 313.15 K [S/m] | mass density, 303.15 K [kg/m3] | mass density, 308.15 K [kg/m3] | mass density, 313.15 K [kg/m3]
m1 = 0.00122 | – | – | – | 995.67 | 994.05 | 992.22
m1 = 0.00157 | – | 0.018 | 0.0197 | 995.69 | 994.07 | 992.24
m1 = 0.00191 | – | – | – | 995.71 | 994.09 | 992.26
m1 = 0.00201 | – | 0.0229 | 0.025 | 995.72 | 994.1 | 992.27
m1 = 0.00258 | – | – | – | 995.75 | 994.14 | 992.3
m1 = 0.00299 | – | 0.0334 | 0.0366 | 995.78 | 994.17 | 992.33
m1 = 0.00326 | – | – | – | 995.8 | 994.18 | 992.35
m1 = 0.00407 | – | 0.0443 | 0.0485 | 995.85 | 994.24 | 992.4
m1 = 0.00429 | – | – | – | 995.87 | 994.25 | 992.42
m1 = 0.00507 | – | 0.0563 | 0.0614 | 995.92 | 994.3 | 992.46
m1 = 0.00548 | – | – | – | 995.95 | 994.33 | 992.49
m1 = 0.00602 | – | 0.0646 | 0.0703 | 995.98 | 994.36 | 992.52
m1 = 0.00698 | – | 0.0757 | 0.0838 | 996.04 | 994.42 | 992.58
m1 = 0.00753 | – | 0.0803 | 0.0904 | 996.08 | 994.46 | 992.62
m1 = 0.00905 | – | 0.0978 | 0.11 | 996.18 | 994.55 | 992.72
m1 = 0.01006 | – | 0.107 | 0.122 | 996.25 | 994.63 | 992.79
m1 = 0.01266 | – | 0.131 | 0.146 | 996.42 | 994.78 | 992.94
m1 = 0.01513 | 0.125 | 0.141 | 0.159 | 996.57 | 994.93 | 993.07
m1 = 0.01771 | 0.132 | 0.148 | 0.171 | 996.72 | 995.08 | 993.22
m1 = 0.01974 | 0.138 | 0.156 | 0.177 | 996.84 | 995.2 | 993.33
m1 = 0.02301 | 0.148 | 0.165 | 0.187 | 997.04 | 995.4 | 993.52
m1 = 0.02601 | 0.156 | 0.174 | 0.196 | 997.2 | 995.56 | 993.68
